Reference: PubChem BioAssay AID256 (DTP/NCI, 2004)
Values joined by “and” are separate entries in the source; they are usually repeats but may differ in a detail not shown here. Identical values can stand only once. Inconclusive results and toxic doses are left out. The calls were made as follows: active = survival T/C of 150% or more; inactive = T/C below 125% in these data.

Test system: CD2F1 mice, L1210 leukemia ip, survival T/C
Assay: NCI In Vivo Anticancer Drug Screen. Data for tumor model L1210 Leukemia (intraperitoneal) in CD2F1 (CDF1) mice
Details: higher = longer survival
Procedure, shortened: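 Compound-dosed mice with transplantable tumor versus matched vehicle controls; endpoint ratio T/C reported.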

[1] = endpoint: mean survival time, dose: 100.0 mg/kg/injection, schedule: Q01DX009 (ip), vehicle: saline with Tween-80
[2] = endpoint: mean survival time, dose: 200.0 mg/kg/injection, schedule: Q01DX009 (ip), vehicle: saline with Tween-80
[3] = endpoint: mean survival time, dose: 400.0 mg/kg/injection, schedule: Q01DX009 (ip), vehicle: saline with Tween-80
[4] = endpoint: mean survival time, dose: 100.0 mg/kg/injection, schedule: Q04DX003 (ip), vehicle: saline with Tween-80
[5] = endpoint: mean survival time, dose: 200.0 mg/kg/injection, schedule: Q04DX003 (ip), vehicle: saline with Tween-80
[6] = endpoint: mean survival time, dose: 50.0 mg/kg/injection, schedule: Q04DX003 (ip), vehicle: saline with Tween-80

Measured: T/C

Cc1c(N)nc(C(CC(N)=O)NCC(N)C(N)=O)nc1C(=O)NC(C(=O)NC(C)C(O)CC(=O)NC(C(=O)NC(OC1OC(C)C(N)C(O)C1O)C(O)c1nc(-c2nc(C(=O)NCCCC(N)CC(=O)NCCCNCCCCN)cs2)cs1)C(C)O)C(OC1OC(CO)C(O)C(O)C1OC1OC(CO)C(O)C(OC(N)=O)C1O)c1cnc[nH]1 (configuration not stated)
inactive: endpoint: mean survival time, dose: 1.0 mg/kg/injection, schedule: Q01DX009 (ip), vehicle: saline 103 % of control | endpoint: mean survival time, dose: 2.0 mg/kg/injection, schedule: Q01DX009 (ip), vehicle: saline 101 % of control | endpoint: mean survival time, dose: 4.0 mg/kg/injection, schedule: Q01DX009 (ip), vehicle: saline 104 % of control | endpoint: mean survival time, dose: 8.0 mg/kg/injection, schedule: Q01DX009 (ip), vehicle: saline 104 % of control | endpoint: mean survival time, dose: 16.0 mg/kg/injection, schedule: Q01DX009 (ip), vehicle: saline 86 % of control

Nc1nc(-c2cccc([N+](=O)[O-])c2)c(N=Nc2ccc([N+](=O)[O-])cc2)s1
inactive: endpoint: mean survival time, dose: 100.0 mg/kg/injection, schedule: Q01DX001 (ip), vehicle: saline with Tween-80 93 % of control | endpoint: mean survival time, dose: 200.0 mg/kg/injection, schedule: Q01DX001 (ip), vehicle: saline with Tween-80 95 % of control

COc1ccc(OC)c(C2C(C#N)C(C=O)NC(C=O)C2C#N)c1 (configuration not stated)
inactive: endpoint: mean survival time, dose: 100.0 mg/kg/injection, schedule: Q01DX009 (ip), vehicle: other 100 % of control | endpoint: mean survival time, dose: 200.0 mg/kg/injection, schedule: Q01DX009 (ip), vehicle: other 104 % of control | endpoint: mean survival time, dose: 400.0 mg/kg/injection, schedule: Q01DX009 (ip), vehicle: other 100 % of control

C[S+](C)CCC(N)C(=O)O (configuration not stated) (tested in a mixture with another compound)
inactive: endpoint: median survival time, dose: 3.13 mg/kg/injection, schedule: Q04DX002 (ip), vehicle: saline 111 % of control | endpoint: median survival time, dose: 6.25 mg/kg/injection, schedule: Q04DX002 (ip), vehicle: saline 111 % of control | endpoint: median survival time, dose: 12.5 mg/kg/injection, schedule: Q04DX002 (ip), vehicle: saline 111 % of control | endpoint: median survival time, dose: 25.0 mg/kg/injection, schedule: Q04DX002 (ip), vehicle: saline 111 % of control and 108 % of control | endpoint: median survival time, dose: 50.0 mg/kg/injection, schedule: Q04DX002 (ip), vehicle: saline 111 % of control and 94 % of control | endpoint: median survival time, dose: 100.0 mg/kg/injection, schedule: Q04DX002 (ip), vehicle: saline 117 % of control and 100 % of control | endpoint: median survival time, dose: 400.0 mg/kg/injection, schedule: Q04DX002 (ip), vehicle: saline 100 % of control

Cc1cc(-c2ccccc2)cc(=O)[nH]1
inactive: endpoint: mean survival time, dose: 100.0 mg/kg/injection, schedule: Q01DX001 (ip), vehicle: other 92 % of control | endpoint: mean survival time, dose: 200.0 mg/kg/injection, schedule: Q01DX001 (ip), vehicle: other 92 % of control | endpoint: mean survival time, dose: 400.0 mg/kg/injection, schedule: Q01DX001 (ip), vehicle: other 91 % of control

COCc1nnc2nc[nH]c(=O)c2n1
inactive: endpoint: mean survival time, dose: 100.0 mg/kg/injection, schedule: Q01DX001 (ip), vehicle: carboxymethylcellulose (CMC) 98 % of control | endpoint: mean survival time, dose: 200.0 mg/kg/injection, schedule: Q01DX001 (ip), vehicle: carboxymethylcellulose (CMC) 101 % of control

NC(=O)C(CSCc1ccccc1)NC(=O)OCc1ccccc1 (configuration not stated)
inactive: [1] 91 % of control | [2] 88 % of control | [3] 91 % of control

[Cl][Pt+2][Cl].[NH-]CC([NH-])c1ccc2oc3ccccc3c2c1 (configuration not stated)
inactive: endpoint: median survival time, dose: 10.0 mg/kg/injection, schedule: Q04DX003 (ip), vehicle: saline 100 % of control | endpoint: median survival time, dose: 20.0 mg/kg/injection, schedule: Q04DX003 (ip), vehicle: saline 94 % of control | endpoint: median survival time, dose: 40.0 mg/kg/injection, schedule: Q04DX003 (ip), vehicle: saline 105 % of control | endpoint: median survival time, dose: 80.0 mg/kg/injection, schedule: Q04DX003 (ip), vehicle: saline with Tween-80 107 % of control | endpoint: median survival time, dose: 80.0 mg/kg/injection, schedule: Q04DX003 (ip), vehicle: saline 110 % of control

Nc1nc2c(ncn2C2CC3[O][Sn]([c]4ccccc4)([c]4ccccc4)[O]CC3O2)c(=O)[nH]1 (configuration not stated)
inactive: endpoint: mean survival time, dose: 6.25 mg/kg/injection, schedule: Q01DX005 (ip), vehicle: distilled water + Tween-80 104 % of control | endpoint: mean survival time, dose: 12.5 mg/kg/injection, schedule: Q01DX005 (ip), vehicle: distilled water + Tween-80 93 % of control | endpoint: mean survival time, dose: 25.0 mg/kg/injection, schedule: Q01DX005 (ip), vehicle: distilled water + Tween-80 93 % of control | endpoint: mean survival time, dose: 50.0 mg/kg/injection, schedule: Q01DX005 (ip), vehicle: distilled water + Tween-80 90 % of control | endpoint: mean survival time, dose: 100.0 mg/kg/injection, schedule: Q01DX005 (ip), vehicle: distilled water + Tween-80 106 % of control

CC1(C)C2(C)CC12C (configuration not stated)
inactive: endpoint: mean survival time, dose: 1.25 mg/kg/injection, schedule: Q04DX002 (ip), vehicle: saline with Tween-80 97 % of control | endpoint: mean survival time, dose: 2.5 mg/kg/injection, schedule: Q04DX002 (ip), vehicle: saline with Tween-80 97 % of control | endpoint: mean survival time, dose: 5.0 mg/kg/injection, schedule: Q04DX002 (ip), vehicle: saline with Tween-80 97 % of control | endpoint: mean survival time, dose: 10.0 mg/kg/injection, schedule: Q04DX002 (ip), vehicle: saline with Tween-80 97 % of control

Cc1ccc(C(C)C)cc1NC(=O)c1ccccc1C(=O)O
inactive: [4] 95 % of control | [5] 95 % of control | endpoint: mean survival time, dose: 400.0 mg/kg/injection, schedule: Q04DX003 (ip), vehicle: saline with Tween-80 87 % of control

Cc1ccc(C(=O)c2ccc(C)cc2)cc1
inactive: endpoint: mean survival time, dose: 100.0 mg/kg/injection, schedule: Q01DX009 (ip), vehicle: saline 90 % of control | endpoint: mean survival time, dose: 100.0 mg/kg/injection, schedule: Q04DX002 (ip), vehicle: saline 93 % of control | endpoint: mean survival time, dose: 200.0 mg/kg/injection, schedule: Q01DX009 (ip), vehicle: saline 93 % of control | endpoint: mean survival time, dose: 200.0 mg/kg/injection, schedule: Q04DX002 (ip), vehicle: saline 95 % of control | endpoint: mean survival time, dose: 400.0 mg/kg/injection, schedule: Q01DX009 (ip), vehicle: saline 93 % of control | endpoint: mean survival time, dose: 400.0 mg/kg/injection, schedule: Q04DX002 (ip), vehicle: saline 95 % of control

CNCCOc1ccc(Cl)cc1
inactive: endpoint: mean survival time, dose: 25.0 mg/kg/injection, schedule: Q01DX009 (ip), vehicle: saline with Tween-80 94 % of control | endpoint: mean survival time, dose: 25.0 mg/kg/injection, schedule: Q04DX003 (ip), vehicle: saline with Tween-80 96 % of control | endpoint: mean survival time, dose: 50.0 mg/kg/injection, schedule: Q01DX009 (ip), vehicle: saline with Tween-80 96 % of control | [6] 113 % of control | [1] 96 % of control | [4] 96 % of control and 97 % of control

N#Cc1cn(C2OC(CO)C(O)C2O)c2ncn(N)c(=N)c12 (configuration not stated)
inactive: endpoint: mean survival time, dose: 25.0 mg/kg/injection, schedule: Q01DX005 (ip), vehicle: water 110 % of control | endpoint: mean survival time, dose: 50.0 mg/kg/injection, schedule: Q01DX005 (ip), vehicle: water 111 % of control | endpoint: mean survival time, dose: 100.0 mg/kg/injection, schedule: Q01DX005 (ip), vehicle: water 118 % of control

CCOC(=O)N/N=C/c1cc(Cl)ccc1O
inactive: [6] 98 % of control | [4] 93 % of control | [5] 91 % of control

O=S(=O)(Cc1ccccc1)CC(Br)CBr (configuration not stated)
inactive: endpoint: mean survival time, dose: 100.0 mg/kg/injection, schedule: Q01DX001 (ip), vehicle: Klucel (hydroxypropylcellulose) (HPC) 91 % of control | endpoint: mean survival time, dose: 200.0 mg/kg/injection, schedule: Q01DX001 (ip), vehicle: Klucel (hydroxypropylcellulose) (HPC) 103 % of control | endpoint: mean survival time, dose: 400.0 mg/kg/injection, schedule: Q01DX001 (ip), vehicle: Klucel (hydroxypropylcellulose) (HPC) 106 % of control

CC(=O)c1c(C(C)C)cc(C(C)C)cc1C(C)C
inactive: [1] 98 % of control | [2] 101 % of control | [3] 101 % of control

CCCCOC(=O)c1cc([N+](=O)[O-])cc([N+](=O)[O-])c1Sc1ncnc2nc[nH]c12
inactive: endpoint: mean survival time, dose: 0.63 mg/kg/injection, schedule: Q01DX005 (ip), vehicle: other 108 % of control | endpoint: mean survival time, dose: 1.25 mg/kg/injection, schedule: Q01DX005 (ip), vehicle: other 95 % of control | endpoint: mean survival time, dose: 2.5 mg/kg/injection, schedule: Q01DX005 (ip), vehicle: other 110 % of control | endpoint: mean survival time, dose: 5.0 mg/kg/injection, schedule: Q01DX005 (ip), vehicle: other 113 % of control | endpoint: mean survival time, dose: 9.4 mg/kg/injection, schedule: Q01DX005 (ip), vehicle: other 98 % of control | endpoint: mean survival time, dose: 10.0 mg/kg/injection, schedule: Q01DX005 (ip), vehicle: other 115 % of control | endpoint: mean survival time, dose: 18.8 mg/kg/injection, schedule: Q01DX005 (ip), vehicle: other 103 % of control | endpoint: mean survival time, dose: 37.5 mg/kg/injection, schedule: Q01DX005 (ip), vehicle: other 109 % of control | endpoint: mean survival time, dose: 75.0 mg/kg/injection, schedule: Q01DX005 (ip), vehicle: other 113 % of control

CCCCOC(=O)CCl
inactive: endpoint: mean survival time, dose: 100.0 mg/kg/injection, schedule: Q01DX001 (ip), vehicle: saline 100 % of control | endpoint: mean survival time, dose: 200.0 mg/kg/injection, schedule: Q01DX001 (ip), vehicle: saline 94 % of control
